Assay results: article PMC12656329, “Specific Hepatorenal Toxicity and Cross-Species Susceptibility of Eight Representative Pesticides” (Toxics, 2025)
Entries after “also recorded” stand apart in the source; their conditions may differ.

What was measured:
CCC-HEL-1 hepatocytes = experiment: CCK-8 cytotoxicity assay, CCC-HEL-1; format: cell-based; details: Homo sapiens, Hepatocyte; CCK-8, 24 h exposure
Experimental: (§1) Human embryonic kidney 293T (HEK293T) cells and rat renal NRK cells were maintained in high-glucose DMEM supplemented with 10% fetal bovine serum (FBS) and 1% penicillin–streptomycin at 37 °C under 5% CO2 until reaching 70–80%. Human liver CCC-HEL-1 cells were cultured under identical conditions but with 20% FBS, while rat normal hepatocytes were grown in high-glucose MEM containing 20% FBS and 1% penicillin–streptomycin. Stock solutions (500 g/L) of eight pesticide standards were prepared in dimethyl sulfoxide (DMSO) and stored at −20 °C. Working concentrations were freshly diluted in serum-containing culture medium prior to each experiment.
(§2) The cytotoxicity of eight pesticides on four mammalian cell lines was assessed using the Cell Counting Kit-8 (CCK-8) assay. Initially, stock solutions of each pesticide were prepared by dissolving the compound in dimethyl sulfoxide (DMSO) to a final concentration of 500 g/L. For the assay, cells were seeded into 96-well plates at a density of 2 × 10^4 cells per well in 100 µL of medium and incubated for 24 h at 37 °C under a 5% CO2 atmosphere to allow for attachment. Subsequently, the culture medium was replaced with fresh medium containing the pesticides at a series of final concentrations (0, 10, 100, 200, 400, 800, 1000, and 2500 mg/L). Pesticide working concentrations were prepared through serial dilution of the 500 g/L DMSO stock solution, resulting in variable final DMSO concentrations across treatment groups (ranging from 0.002% to 0.5% v/v). A media-only blank (no cells) was included for background absorbance correction, and a solvent control (0.1% DMSO, no pesticide) was used to account for any vehicle effects. All conditions were performed in five replicates. […] At DMSO concentrations ranging from 0.1% to 0.2%, the viability of all four cell lines remained stable above 80%. At a 1% DMSO concentration, the viability of all four cell types was around 50% or higher (Supplementary Figure S5). Following 24 h of exposure, 10 µL of CCK-8 reagent was added to each well. Absorbance Measurement: After an additional 1 h of incubation in the dark, the optical density (OD) at 450 nm was recorded using a microplate reader. Cell viability was calculated by comparing the OD values of treated groups with those of the blank control. Although some test concentrations exceeded the water solubility of the pesticides, the combination of DMSO and serum in the culture medium maintained a uniform exposure system. No precipitation was observed during the experiment, ensuring that the measured effects are attributed to the bioavailable fraction of the compound. […]
(§3) 1. Pesticide Exposure: After removing the medium, fresh medium containing gradient concentrations (0–2500 mg/L) of each pesticide was added (five replicates per concentration).
(§4) Following 24 h of exposure, 10 µL of CCK-8 reagent was added to each well.
(§5) 2. Absorbance Measurement: After 1 h of dark incubation, the OD at 450 nm was measured using a microplate reader.
(§6) 3. Cell Viability Calculation: Viability was determined by comparing the OD values of treated groups to the blank control. […]

IAR hepatocytes = experiment: CCK-8 cytotoxicity assay, IAR; format: cell-based; details: Rattus norvegicus, Hepatocyte; CCK-8, 24 h exposure
Experimental: as §1, §2, §3, §4, §5, §6

293T renal cells [1] = experiment: CCK-8 cytotoxicity assay, 293T; format: cell-based, human; details: Homo sapiens, HEK-293T, 24 h, CCK-8, 24 h exposure
Experimental: as §1, §2, §3, §4, §5, §6

NRK renal cells = experiment: CCK-8 cytotoxicity assay, NRK; format: cell-based; details: Rattus norvegicus; CCK-8, 24 h exposure
Experimental: as §1, §2, §3, §4, §5, §6

293T renal cells [2] = experiment: ELISA of toxicity biomarkers (LDH, KIM-1) in culture supernatant, 293T; format: cell-based, human; details: 293T cells, 24 h exposure at median lethal concentration, vs control
Experimental: The levels of hepatotoxicity biomarkers (ALT, AST, ALP) and nephrotoxicity biomarkers (KIM-1, LDH) in cell culture supernatant were quantified using commercially available ELISA kits (Cloud-Clone Corp., Wuhan, China). 100 μL of the supernatant was added to the pre-coated wells and incubated according to the manufacturer’s protocol (five replicates). After washing, the appropriate detection antibody and substrate were added, and the absorbance was measured at 450 nm using microplate reader. The concentrations of the biomarkers were determined based on standard curves.

[3] = system: MRP2 in CCC-HEL-1 hepatic cells; experiment: MRP2 immunofluorescence staining, CCC-HEL-1; format: cell-based, human; details: CCC-HEL-1 cells, 24 h at IC50, immunofluorescence
Experimental: Cells were seeded at a density of 1 × 10^5 cells per well in immunofluorescence-specific glass-bottom dishes and allowed to adhere for 24 h. […] Following treatment, cells were fixed with 4% paraformaldehyde for 15 min at room temperature and permeabilized with 0.1% Triton X-100 for 10 min. Non-specific binding was blocked with 5% bovine serum albumin (BSA) for 1 h at room temperature. Cells were then incubated with primary antibody against MRP2 (1:300 dilution) overnight at 4 °C. After three washes with PBS, cells were treated with secondary antibody (rabbit anti-IgG, 1:600 dilution) for 1 h at room temperature and washed three times with PBS. Anti-MRP2 antibody (Abcam, ab172630) and Alexa Fluor® 488-conjugated anti-rabbit IgG secondary antibody (Cell Signaling Technology, Danvers, MA, USA, 4412) were used for immunofluorescence staining. Nuclei were counterstained with DAPI Staining Solution (C1005, 10 mL) (Beyotime Biotechnology, Shanghai, China). Fluorescent images were captured using a 10× inverted fluorescence microscope. Quantitative analysis of fluorescence intensity was performed using ImageJ software 2.1.0 (National Institutes of Health, Bethesda, MD, USA).

Rat = details: rat, in vivo, po; cited from earlier work
[4] = basis species not given; ref PPDB: Pesticide Properties DataBase; cited from earlier work

CCCC1COC(Cn2cncn2)(c2ccc(Cl)cc2Cl)O1 (centres unmarked) [Propiconazole, propiconazole]
IC50 (CCC-HEL-1 hepatocytes): 72.6 µg/mL | IC50 (IAR hepatocytes): 189 µg/mL | IC50 (293T renal cells [1]): 27.2 µg/mL | IC50 (NRK renal cells): 203 µg/mL | LDH release (293T renal cells [2]): significantly increased; also recorded: significantly elevated LDH release | MRP2 upregulation relative to controls [3]: 1.5 fold | Mammals - Acute oral LD50 (Rat): 550 mg/kg | ADI - Acceptable Daily Intake [4]: 0.04 mg kg⁻¹ bw day⁻¹
